In patent US6573246B1, “Modified ether glyceroglycolipids” (The Liposome Company, Inc., priority 1995, dated 2003):
Like-named read-outs stand apart in the source and are kept apart here. Values belong to the compound of their own block, whether it stands above or below them.

What was measured:
[1] = test system: MCF-7 (breast adenocarcinoma) cells; experiment: growth inhibition of MCF-7 cells in culture; format: cell-based, human
Protocol: (§1) Human epithelial cancer cell lines were grown from frozen stocks originally obtained from the ATCC, in media commonly used for growing these cells in culture. For example, A549 cells (non-small cell lung adenocarcinoma) were cultured in Ham's F-12 medium, T84 cells (colon carcinoma) were cultured in a 1:1 mixture of F-12 and DMEM while MCF-7 (breast adenocarcinoma) and A427 (large cell lung carcinoma) cells were cultured in DMEM. The media were supplemented with 10% fetal bovine serum, penicillin (50 U/ml), streptomycin (50 micogram/ml) and fungizone (0.5 microgram/ml). OVCAR-3 cells (ovarian adenocarcinoma) were cultured in RPMI 1640 medium supplemented with 20% FBS and 10 microgram/ml insulin.
(§2) Cells were subcultured into 24-well plates and the cell number was monitored daily. When the cells were in log phase, the media was replaced with one containing the required drug concentration, and the cells were incubated for 72 h. The increase in cell numbers relative to control wells (without any drug) was determined after the incubation. Stock solutions of the drugs ([…]) were prepared in ethanol and stored at −20 deg. C. Etherlipid solutions (30 micromolar) in the appropriate media were prepared fresh on the day of the experiment and serially diluted to give the required concentrations. The final concentration of ethanol in all wells was 0.1% (v/v).
(§3) Gl50 values are given as the mean ± standard deviation; the Gl50 value from each experiment “n” was generated from three individual wells on two separate plates (six total wells); n=1 for compounds 3-6; n=2 for most cell lines treated with compound 2 ^an=3; ^bn=2; ^cn=6; ^dn=8.

[2] = test system: T84 cells (colon carcinoma); experiment: growth inhibition of T84 cells in culture; format: cell-based, human; settings: 72 h
Protocol: as §1, §2

[3] = test system: A549 cells (non-small cell lung adenocarcinoma); experiment: growth inhibition of A549 cells in culture; format: cell-based, human
Protocol: as §1, §2, §3

[4] = test system: A427 (large cell lung carcinoma) cells; experiment: growth inhibition of A427 cells in culture; format: cell-based, human; settings: 72 h
Protocol: as §1, §2

[5] = test system: OVCAR-3 cells (ovarian adenocarcinoma); experiment: growth inhibition of OVCAR-3 cells in culture; format: cell-based, human; settings: for growth: increase in cell numbers relative to control wells (control = 100): OVCAR-3, 72 h
Protocol: as §1, §2

[6] = test system: MCF-7/Adr (adriamycin-resistant) cells; experiment: growth inhibition of MCF7/adr cells in culture; format: cell-based, human; settings: mean ± standard deviation, read-out: Gl50 (concentration of lipid required to inhibit the growth of fifty percent of the cells in culture)
Protocol: (§4) The Gl50 values for edelfosine (1), 2′-deoxy-β-D-arabinopyranosyl (2), 2′-deoxy-α-D-arabinopyranosyl (3), 2-O-methyl-β-D-glucopyranosyl (4), 2′-O-methyl-β-D-mannopyranosyl (5) and α-D-mannopyransoyl (6) on A-549, MCF-7, Lewis Lung, MCF-7/Adr (adriamycin-resistant), P388, P-388/Adr, L1210 and L1210/vmdr cells were determined and are set forth below (see Table 4) as the concentration (micromolar) of lipid required to inhibit the growth of fifty percent of the cells in culture.
as §3

HT29 cells = experiment: growth inhibition of HT29 cells in culture; format: cell-based; settings: mean ± standard deviation, read-out: Gl50 (concentration of lipid required to inhibit the growth of fifty percent of the cells in culture)
Lewis Lung cells = experiment: growth inhibition of Lewis Lung cells in culture; format: cell-based, murine; settings: mean ± standard deviation, read-out: Gl50 (concentration of lipid required to inhibit the growth of fifty percent of the cells in culture)
Protocol: as §4, §3

P388 cells = experiment: growth inhibition of P388 cells in culture; format: cell-based, murine; settings: mean ± standard deviation, read-out: Gl50 (concentration of lipid required to inhibit the growth of fifty percent of the cells in culture)
Protocol: as §4, §3

P-388/Adr cells = experiment: growth inhibition of P388/adr cells in culture; format: cell-based, murine; settings: mean ± standard deviation, read-out: Gl50 (concentration of lipid required to inhibit the growth of fifty percent of the cells in culture)
Protocol: as §4, §3

L1210 cells = experiment: growth inhibition of L1210 cells in culture; format: cell-based; settings: mean ± standard deviation, read-out: Gl50 (concentration of lipid required to inhibit the growth of fifty percent of the cells in culture)
Protocol: as §4, §3

L1210/vmdr cells = experiment: growth inhibition of L1210/vmdr cells in culture; format: cell-based; settings: mean ± standard deviation, read-out: Gl50 (concentration of lipid required to inhibit the growth of fifty percent of the cells in culture)
Protocol: as §4, §3

[7] = 10% FBS-supplemented medium, read-out: Gl50 (concentration that inhibited cell growth by 50% in comparison to control cultures)

IC50 ([1]; MCF-7, 72 h, 10% FBS-supplemented medium, read-out: Gl50 (concentration that inhibited cell growth by 50% in comparison to control cultures)): 17 µM
IC50 [2, 7]: > 30 µM
IC50 ([3]; 72 h, 10% FBS-supplemented medium, read-out: Gl50 (concentration that inhibited cell growth by 50% in comparison to control cultures)): 9 µM
IC50 [4, 7]: 24.5 µM
IC50 ([5]; OVCAR-3 ovarian cancer cell line, read-out: Gl50 (the source's name)): 4 µM
SMILES: CCCCCCCCCCCCCCCCOC[C@H](CO[C@@H]1O[C@H](CO)[C@@H](O)[C@H](O)[C@H]1NC(C)=O)OC [B, 1-O-hexadecyl-2-O-methyl-3-O-(2′-acetamido-2′-deoxy-β-D-glucopyranosyl)-sn-glycerol]
proliferation: increase in cell numbers relative to control wells (control = 100) ([1]; MCF-7, lipid concentration 5 μM, 72 h): 81 ± 8
proliferation: increase in cell numbers relative to control wells (control = 100) ([1]; MCF-7, lipid concentration 10 μM, 72 h): 71 ± 6
proliferation: increase in cell numbers relative to control wells (control = 100) ([1]; MCF-7, lipid concentration 15 μM, 72 h): 58 ± 5
proliferation: increase in cell numbers relative to control wells (control = 100) ([1]; MCF-7, lipid concentration 20 μM, 72 h): 38 ± 2
proliferation: increase in cell numbers relative to control wells (control = 100) ([1]; MCF-7, lipid concentration 30 μM, 72 h): 6 ± 3
proliferation: increase in cell numbers relative to control wells (control = 100) ([2]; lipid concentration 5 μM): 96 ± 10
proliferation: increase in cell numbers relative to control wells (control = 100) ([2]; lipid concentration 10 μM): 79 ± 12
proliferation: increase in cell numbers relative to control wells (control = 100) ([2]; lipid concentration 15 μM): 77 ± 13
proliferation: increase in cell numbers relative to control wells (control = 100) ([2]; lipid concentration 20 μM): 79 ± 16
proliferation: increase in cell numbers relative to control wells (control = 100) ([2]; lipid concentration 30 μM): 61 ± 13
proliferation: increase in cell numbers relative to control wells (control = 100) ([3]; lipid concentration 5 μM, 72 h): 91 ± 9
proliferation: increase in cell numbers relative to control wells (control = 100) ([3]; lipid concentration 10 μM, 72 h): 45 ± 3
proliferation: increase in cell numbers relative to control wells (control = 100) ([3]; lipid concentration 15 μM, 72 h): 15 ± 2
proliferation: increase in cell numbers relative to control wells (control = 100) ([3]; lipid concentration 20 μM, 72 h): 0
proliferation: increase in cell numbers relative to control wells (control = 100) ([3]; lipid concentration 30 μM, 72 h): 0
proliferation: increase in cell numbers relative to control wells (control = 100) ([4]; lipid concentration 5 μM): 93 ± 12
proliferation: increase in cell numbers relative to control wells (control = 100) ([4]; lipid concentration 10 μM): 92 ± 6
proliferation: increase in cell numbers relative to control wells (control = 100) ([4]; lipid concentration 15 μM): 86 ± 10
proliferation: increase in cell numbers relative to control wells (control = 100) ([4]; lipid concentration 20 μM): 71 ± 8
proliferation: increase in cell numbers relative to control wells (control = 100) ([4]; lipid concentration 30 μM): 24 ± 4
growth: increase in cell numbers relative to control wells (control = 100) ([5]; lipid concentration 5 μM): 68.8 ± 5.8
growth: increase in cell numbers relative to control wells (control = 100) ([5]; lipid concentration 10 μM): 52.9 ± 3.9
growth: increase in cell numbers relative to control wells (control = 100) ([5]; lipid concentration 15 μM): 34.6 ± 7.3
growth: increase in cell numbers relative to control wells (control = 100) ([5]; lipid concentration 20 μM): 26.0 ± 10.9
growth: increase in cell numbers relative to control wells (control = 100) ([5]; lipid concentration 30 μM): 4.7 ± 4.8

IC50 ([1]; MCF7, mean ± standard deviation, read-out: Gl50 (concentration of lipid required to inhibit the growth of fifty percent of the cells in culture)): 6.93 ± 0.12 µM
IC50 ([3]; mean ± standard deviation, read-out: Gl50 (concentration of lipid required to inhibit the growth of fifty percent of the cells in culture)): 9.9 ± 0.99 µM
IC50 [6]: 12.8 ± 0.85 µM
IC50 (HT29 cells): 7.59 ± 0.23 µM
IC50 (P388 cells): 12.7 ± 0.78 µM
IC50 (P-388/Adr cells): 10.2 ± 0.34 µM
IC50 (L1210 cells): 7.02 ± 0.49 µM
IC50 (L1210/vmdr cells): 7.09 ± 0.33 µM
SMILES: CCCCCCCCCCCCCCCCOC[C@H](CO[C@H]1C[C@H](O)[C@H](O)CO1)OC [compound 2, 1-O-Hexadecyl-2-O-methyl-3-O-(2′-deoxy-β-D-arabinopyransoyl)-sn-glycerol]
IC50 (Lewis Lung cells): 11.1 ± 0.49 µM
